Assay results as given in PubChem BioAssay AID1845197 (Molecular Pharmacology Branch, DTP, NCI, 2023).

System: 349418-098-R tumor spheroid viability
Test: Anticancer human tumor 349418-098-R patient-derived lung adenocarcinoma cell line growth inhibition
Conditions: spheroids with HUVEC and MSC; for IC50: curve of first compound; for viability, T/C: stronger effect = lower value; active = viability on the fitted dose curve at most 10% of control; inactive = the rest
Method in brief: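 Complex tumor spheroids combined malignant cells with endothelial cells and mesenchymal stem cells. DNA-damaging drugs and DNA repair inhibitors were tested alone and in combination, at half-log dilutions down from clinical Cmax (top 10 microM if Cmax unknown), 0.25% DMSO final.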

[1] = second compound 30 pM, first compound 0.00949 µM
[2] = second compound 30 pM, first compound 0.03 µM
[3] = second compound 30 pM, first compound 0.0949 µM
[4] = second compound 30 pM, first compound 0.3 µM
[5] = second compound 30 pM, first compound 0.949 µM
[6] = second compound 30 pM, first compound 3 µM
[7] = second compound 94.9 pM, first compound 0.00949 µM
[8] = second compound 94.9 pM, first compound 0.03 µM
[9] = second compound 94.9 pM, first compound 0.0949 µM
[10] = second compound 94.9 pM, first compound 0.3 µM
[11] = second compound 94.9 pM, first compound 0.949 µM
[12] = second compound 94.9 pM, first compound 3 µM
[13] = second compound 0.0003 µM, first compound 0.00949 µM
[14] = second compound 0.0003 µM, first compound 0.03 µM
[15] = second compound 0.0003 µM, first compound 0.0949 µM
[16] = second compound 0.0003 µM, first compound 0.3 µM
[17] = second compound 0.0003 µM, first compound 0.949 µM
[18] = second compound 0.0003 µM, first compound 3 µM
[19] = second compound 0.000949 µM, first compound 0.00949 µM
[20] = second compound 0.000949 µM, first compound 0.03 µM
[21] = second compound 0.000949 µM, first compound 0.0949 µM
[22] = second compound 0.000949 µM, first compound 0.3 µM
[23] = second compound 0.000949 µM, first compound 0.949 µM
[24] = second compound 0.000949 µM, first compound 3 µM
[25] = second compound 0.003 µM, first compound 0.00949 µM
[26] = second compound 0.003 µM, first compound 0.03 µM
[27] = second compound 0.003 µM, first compound 0.0949 µM
[28] = second compound 0.003 µM, first compound 0.3 µM
[29] = second compound 0.003 µM, first compound 0.949 µM
[30] = second compound 0.003 µM, first compound 3 µM
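Also: spheroids exposed to compound for 7 days before measurement.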
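For viability, T/C in this document: percent of vehicle control viability with 100% = DMSO-treated spheroids.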

Cn1ncnc1[C@H]1c2n[nH]c(=O)c3cc(F)cc(c23)N[C@@H]1c1ccc(F)cc1 + Cn1nnc2c(C(N)=O)ncn2c1=O
1100 nM: IC50 (second compound 10 µM)
inactive: viability, T/C (second compound 1 µM, first compound 0.00949 µM) 99% | viability, T/C (second compound 1 µM, first compound 0.03 µM) 99.2% | viability, T/C (second compound 1 µM, first compound 0.0949 µM) 94.3% | viability, T/C (second compound 1 µM, first compound 0.3 µM) 99.9% | viability, T/C (second compound 1 µM, first compound 0.949 µM) 82.9% | viability, T/C (second compound 3.16 µM, first compound 0.00949 µM) 100% | viability, T/C (second compound 3.16 µM, first compound 0.03 µM) 99.9% | viability, T/C (second compound 3.16 µM, first compound 0.0949 µM) 97.5% | viability, T/C (second compound 3.16 µM, first compound 0.3 µM) 95.4% | viability, T/C (second compound 3.16 µM, first compound 0.949 µM) 77.1% | viability, T/C (second compound 10 µM, first compound 0.00949 µM) 104% | viability, T/C (second compound 10 µM, first compound 0.03 µM) 98% | viability, T/C (second compound 10 µM, first compound 0.0949 µM) 95.1% | viability, T/C (second compound 10 µM, first compound 0.3 µM) 94% | viability, T/C (second compound 10 µM, first compound 0.949 µM) 56.2% | viability, T/C (second compound 31.6 µM, first compound 0.00949 µM) 97.7% | viability, T/C (second compound 31.6 µM, first compound 0.03 µM) 77.7% | viability, T/C (second compound 31.6 µM, first compound 0.0949 µM) 56.5% | viability, T/C (second compound 31.6 µM, first compound 0.3 µM) 35.6% | viability, T/C (second compound 31.6 µM, first compound 0.949 µM) 12.3% | viability, T/C (second compound 100 µM, first compound 0.00949 µM) 16.3% | viability, T/C (second compound 100 µM, first compound 0.03 µM) 12.1%
< 9.49 nM: IC50 (second compound 100 µM)
active: viability, T/C (second compound 1 µM, first compound 3 µM) 8.45% | viability, T/C (second compound 3.16 µM, first compound 3 µM) 6.31% | viability, T/C (second compound 10 µM, first compound 3 µM) 6.77% | viability, T/C (second compound 31.6 µM, first compound 3 µM) 3.26% | viability, T/C (second compound 100 µM, first compound 0.0949 µM) 9.69% | viability, T/C (second compound 100 µM, first compound 0.3 µM) 7.58% | viability, T/C (second compound 100 µM, first compound 0.949 µM) 6.59% | viability, T/C (second compound 100 µM, first compound 3 µM) 1.86%
1580 nM: IC50 (second compound 1 µM)
1470 nM: IC50 (second compound 3.16 µM)
131 nM: IC50 (second compound 31.6 µM)

CNCc1ccc(-c2cc(-c3nc(-c4ccc(S(=O)(=O)C(C)C)cc4)cnc3N)on2)cc1 + COc1cc2c(cc1O)CCNC21CSC2c3c(OC(C)=O)c(C)c4c(c3C(COC1=O)N1C(O)C3Cc5cc(C)c(OC)c(O)c5C(C21)N3C)OCO4
< 9.49 nM: IC50 (second compound 0.000949 µM) | IC50 (second compound 0.003 µM)
202 nM: IC50 (second compound 94.9 pM)
inactive: viability, T/C [1] 105% | viability, T/C [2] 91.3% | viability, T/C [3] 87.8% | viability, T/C [4] 69.6% | viability, T/C [5] 14.5% | viability, T/C [7] 97% | viability, T/C [8] 97.5% | viability, T/C [9] 85.4% | viability, T/C [10] 31.1% | viability, T/C [13] 91.6% | viability, T/C [14] 93.5% | viability, T/C [15] 79.5% | viability, T/C [16] 15.6%
162 nM: IC50 (second compound 0.0003 µM)
active: viability, T/C [6] 5.77% | viability, T/C [11] 10.2% | viability, T/C [12] 3.32% | viability, T/C [17] 5.43% | viability, T/C [18] 2.26% | viability, T/C [19] 0.44% | viability, T/C [20] 0.78% | viability, T/C [21] 0.51% | viability, T/C [22] 0.68% | viability, T/C [23] 0.41% | viability, T/C [24] 0.11% | viability, T/C [25] 1.46% | viability, T/C [26] 1.27% | viability, T/C [27] 0.93% | viability, T/C [28] 1.07% | viability, T/C [29] 1.05% | viability, T/C [30] 0.22%
448 nM: IC50 (second compound 30 pM)

Cc1sc2c(c1C)C(c1ccc(Cl)cc1)=NC(CC(=O)Nc1ccc(O)cc1)c1nnc(C)n1-2 (stereo not given) + COc1cc2c(cc1O)CCNC21CSC2c3c(OC(C)=O)c(C)c4c(c3C(COC1=O)N1C(O)C3Cc5cc(C)c(OC)c(O)c5C(C21)N3C)OCO4
inactive: viability, T/C [1] 97.4% | viability, T/C [2] 101% | viability, T/C [3] 63.3% | viability, T/C [4] 22.3% | viability, T/C [7] 99.1% | viability, T/C [8] 104% | viability, T/C [9] 53.6% | viability, T/C [13] 87.3% | viability, T/C [14] 56% | viability, T/C [15] 28.3%
142 nM: IC50 (second compound 30 pM)
104 nM: IC50 (second compound 94.9 pM)
< 9.49 nM: IC50 (second compound 0.000949 µM) | IC50 (second compound 0.003 µM)
39.2 nM: IC50 (second compound 0.0003 µM)
active: viability, T/C [5] 3.92% | viability, T/C [6] 0.75% | viability, T/C [10] 7.33% | viability, T/C [11] 1.23% | viability, T/C [12] 0.57% | viability, T/C [16] 4.02% | viability, T/C [17] 0.43% | viability, T/C [18] 0.38% | viability, T/C [19] 0.25% | viability, T/C [20] 0.35% | viability, T/C [21] 0.19% | viability, T/C [22] 0.18% | viability, T/C [23] 0.18% | viability, T/C [24] 0.57% | viability, T/C [25] 1.49% | viability, T/C [26] 1.62% | viability, T/C [27] 1.47% | viability, T/C [28] 1.59% | viability, T/C [29] 2.52% | viability, T/C [30] 3.49%
